In PMC4784473 (Bioorganic & medicinal chemistry letters, 2008):

Columns and labels:
M. tuberculosis DXS = M. tuberculosis DXS (Mycobacterium tuberculosis, UniProt P9WNS3); assay: biochemical; type: biochemical; conditions: for inhibitory activity against M. tuberculosis DXS (in words): SAR discussion
Vero cells = assay: Vero cell cytotoxicity; type: cell-based; conditions: Vero cell toxicity versus M. tuberculosis growth inhibition

M. tuberculosis DXS, sequence (P9WNS3 whole entry): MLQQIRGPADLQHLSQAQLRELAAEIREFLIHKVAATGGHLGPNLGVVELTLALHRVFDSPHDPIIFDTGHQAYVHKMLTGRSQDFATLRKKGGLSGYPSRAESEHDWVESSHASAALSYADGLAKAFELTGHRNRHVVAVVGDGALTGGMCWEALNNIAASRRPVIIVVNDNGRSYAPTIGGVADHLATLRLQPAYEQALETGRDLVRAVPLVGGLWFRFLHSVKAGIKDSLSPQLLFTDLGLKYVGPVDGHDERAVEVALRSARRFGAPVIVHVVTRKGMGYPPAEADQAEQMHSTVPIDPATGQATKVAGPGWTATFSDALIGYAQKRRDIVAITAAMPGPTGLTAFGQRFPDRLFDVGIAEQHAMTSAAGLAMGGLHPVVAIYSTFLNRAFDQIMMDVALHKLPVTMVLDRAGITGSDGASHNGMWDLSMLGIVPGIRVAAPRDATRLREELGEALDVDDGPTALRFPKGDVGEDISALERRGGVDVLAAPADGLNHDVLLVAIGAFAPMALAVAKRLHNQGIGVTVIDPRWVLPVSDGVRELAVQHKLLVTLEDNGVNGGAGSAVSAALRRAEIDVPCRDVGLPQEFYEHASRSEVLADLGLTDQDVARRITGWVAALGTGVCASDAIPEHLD

Row | SMILES | inhibitory activity against M. tuberculosis DXS (in words) (M. tuberculosis DXS) | other results
1 | COCc1cc(=O)n2ncc(-c3ccc(Cl)cc3)c2[nH]1 [Compound 2] | inhibitory activity was abolished | 
2 | Cc1cc(=O)n2ncc(-c3ccc(Cl)cc3)c2[nH]1 [Compound 3] | inhibitory activity was abolished | 
3 | CCOC(=O)Cc1c(C)nc2c(-c3ccccc3)cnn2c1O [Compound 4] | lost its activity | 
4 | COc1ccc(-c2cc(=O)n3nc(C)c(-c4ccc(Cl)cc4)c3[nH]2)cc1 [Compound 18] |  | selectivity index (Vero cells): 2.1
5 | COc1ccc(-c2cc(=O)n3nc(C)c(-c4ccc(F)cc4)c3[nH]2)cc1 [Compound 19, 2-methyl-3-(4-fluorophenyl)-5-(4-meth-oxy-phenyl)-4H-pyrazolo[1,5-a]pyrimidin-7-one] |  | selectivity index (Vero cells): 4.6
6 | COCc1cc(=O)n2nc(C)c(-c3ccc(Cl)cc3)c2[nH]1 [Compound 25] | loss in activity | 
7 | CCCc1c(-c2ccccc2)[nH]c2c(-c3ccccc3)c(C)nn2c1=O [Compound 27] |  | IC50 (M. tuberculosis DXS): 71.9 ± 10.1 µM
